Structures can show the parent of a compound that is named as a salt.
What was measured:
mice = assay: pole climbing avoidance test; format: in vivo; details: i.p., treated/untreated mice
Text: The neuroleptic activity of the compounds of the invention was investigated by means of the "pole climbing avoidance test", as described by L. Cook et al. (Ann. N.Y. Acad. Sci. 66, 740, 1957) and subsequently modified by Maffii et al. (J. Pharm. Pharmac., 11, 129, 1959). As a representative example, the compound of example 38 scores as follows in the above test:
The symbols CR, CR2, and UR corresponds to the primary, secondary conditioned response and to the unconditioned response according to the above test.

α1 adrenoceptor = assay: displacement of ^3 H-prazosin specifically bound in rat brain homogenate (radioligand binding); details: ^3 H Prazosin binding, Ki calculated from IC50, read-out: K1 (nM) ^3 H Prazosin
Procedure: The compounds of the invention were tested […] for their ability to compete with labelled ligands of α1, α2 -adrenergic,and dopaminergic receptors. Said tests were made essentially following:
(b) the method described by P. Greengrass et al., European Journal of Pharmacology, Vol. 55, pp. 323-326, (1979), which uses the specific displacement of ^3 H-prazosin specifically bound in rat brain homogenate, for the identification of substances interacting with the so called "α1 "adrenoceptor;
The above mentioned methods are radioligand binding assays and are based on the knowledge that many natural or synthetic physiologically active substances such as neurotransmitters, hormones, and others, specifically link to cellular receptors, generally of proteic nature. They are generally obtained from a tissue or organ of a suitable test-animal after isolation and homogenization of said tissue or organ.
The homogenate is twice centrifugated to separate and partially purify the receptorial fraction (synaptosomes).
The labelled substances employed are known to specifically bind their receptors, so the drug-receptor dissociation constants obtained for each test compound under standard conditions are a measure of their actual binding affinities. The validation of the above methods in predicting a possible pharmacological activity was carried out comparing the in vitro binding constants of a number of […] agonist or antagonist of the adrenergic or dopaminergic system with their in vivo activities. The α1 -adrenergic activity is essentially correlated with a peripheral vasodilatation. The α2 -adrenergic activity is essentially correlated with a hypotensive action of central origin, and the dopaminergic activity is correlated with a neuroleptic action. IC50 values, defined as the drug concentration that cause 50% inhibition of the specific ^3 H ligant binding, are observed by incubating from 5 to 7 different dilutions of the tested compound in duplicate or triplicate. Ki, inhibition constant, values are calculated from the following formula: [formula] wherein IC50 is defined as above, C is the concentration of the ^3 H ligand, and KD is the dissociation constant of the ^3 H ligand-receptor complex.

[1] = test system: spontaneously hypertensive rat; assay: lowering of arterial pressure in the spontaneously hypertensive rat; format: in vivo; details: p.o. 50 mg/kg
Procedure: Journal, Vol. 27, p. 282, (1963). The arterial pressure was evaluated according to H. Fribel, E. Vredom, described in Arch. Exp. Phat. Pharmak. Vol. 232, p. 416, (1958). […] This 15% threshold is generally considered predictive of significant antihypertensive activity.

renal hypertensive dogs = assay: lowering of blood pressure in renal hypertensive dogs; format: in vivo, dog
Procedure: In renal hypertensive dogs, preparated essentially according to H. Golblatt, J. Linch. and R. F. Manzal, J. Exp. Med. 59, 347 (1934), some of the compounds of the invention show a considerable lowering of the systolic blood pressure without affecting the heart rate to a great extent.
The test compounds are administered orally and the pressure is measured according to the method of H. Friebel, E. Vrenden, Arch. Exp. Phat. Pharmak. 232, 419 ([…]).
In the above test system the compound of example 100 determines a 20% drop of the blood pressure when administered 0.5 mg/kg p.o., the compound of example 106 determines a 22% drop when administered 1 mg/kg p.o., the compounds of Examples 134 and 135 determine a drop of 34% and 25%, respectively, when administered 5 mg/kg p.o., and the compound of example 107 determines a 43% drop of the blood pressure when administered 10 mg/kg p.o.

[2] = positive inotropic activity in conventional in vitro tests (isolated preparation)

SMILES: CN1CCc2[nH]nc(-c3ccc(F)cc3)c2C1 [Example 38, 3-(4-fluorophenyl)-5-methyl-4,5,6,7-tetrahydro-1H-pyrazolo/4,3-c/pyridine]
- CR2 (secondary conditioned response) (mice; 10 mg/kg): 9/10
- CR (primary conditioned response) (mice; 10 mg/kg): 3/10
- UR (unconditioned response) (mice; 10 mg/kg): 0/10
- CR2 (secondary conditioned response) (mice; 25 mg/kg): 10/10
- CR (primary conditioned response) (mice; 25 mg/kg): 8/10
- UR (unconditioned response) (mice; 25 mg/kg): 0/10

SMILES: Fc1ccc(-c2nn(Cc3ccccc3)c3c2CNCC3)cc1 [Example 100, 3-(4-fluorophenyl)-1-phenylmethyl-4,5,6,7-tetrahydro-1H-pyrazolo/4,3-c/pyridine, hydrochloride]
- Ki (α1 adrenoceptor): 14.7 nM
- lowering of the pressure [1]: 30%
- drop of the blood pressure (renal hypertensive dogs; 0.5 mg/kg p.o.): 20%

SMILES: CCn1nc(-c2cccs2)c2c1CCNC2 [Example 102, 1-ethyl-3-(2-thienyl)-4,5,6,7-tetrahydro-1H-pyrazolo/4,3-c/pyridine, methanesulfonate]
- positive inotropic activity [2]: good positive inotropic activity
- antagonism of the inotropic activity by propanolol (β-adrenergic effects) ([2]; propanolol): not antagonized by propanolol

SMILES: Fc1ccc(Cn2nc(-c3ccc(F)cc3)c3c2CCNC3)cc1 [Example 106]
- Ki (α1 adrenoceptor): 0.331 nM
- drop of the blood pressure (renal hypertensive dogs; 1 mg/kg p.o.): 22%

SMILES: Cc1ccc(Cn2nc(-c3ccc(F)cc3)c3c2CCNC3)cc1 [Example 107, 3-(4-fluorophenyl)-1-(4-methylphenylmethyl)-4,5,6,7-tetrahydro-1H-pyrazolo/4,3-c/pyridine, methanesulfonate]
- Ki (α1 adrenoceptor): 23.6 nM
- drop of the blood pressure (renal hypertensive dogs; 10 mg/kg p.o.): 43%

SMILES: CN1CCc2c(c(-c3ccc(F)cc3)nn2Cc2ccc(F)cc2)C1 [Example 134, 3-(4-fluorophenyl)-1-(4-fluorophenylmethyl)-5-methyl-4,5,6,7-tetrahydro-1H-pyrazolo/4,3-c/pyridine, hydrochloride]
- Ki (α1 adrenoceptor): 6.35 nM
- drop of the blood pressure (renal hypertensive dogs; 5 mg/kg p.o.): 34%

SMILES: Cc1ccc(Cn2nc(-c3ccc(F)cc3)c3c2CCN(C)C3)cc1 [Example 135, 3-(4-fluorophenyl)-1-(4-methylphenylmethyl)-5-methyl-4,5,6,7-tetrahydro-1H-pyrazolo/4,3-c/pyridine, methanesulfonate]
- Ki (α1 adrenoceptor): 47.2 nM
- drop of the blood pressure (renal hypertensive dogs; 5 mg/kg p.o.): 25%

SMILES: CN1CCc2c(c(-c3ccc(Cl)cc3)nn2Cc2ccccc2)C1 [Example 146, 3-(4-chlorophenyl)-4,5,6,7-tetrahydro-5-methyl-1-phenylmethyl-1H-pyrazolo/4,3-c/pyridine, methanesulfonate]
- Ki (α1 adrenoceptor): 30.9 nM

SMILES: Cc1ccc(-c2nn(Cc3ccccc3)c3c2CN(C)CC3)cc1 [Example 147, 4,5,6,7-tetrahydro-5-methyl-3-(4-methylphenyl)-1-phenylmethyl-1H-pyrazolo/4,3-c/pyridine, methanesulfonate]
- Ki (α1 adrenoceptor): 20.1 nM

SMILES: CCCCCn1nc(-c2ccc(F)cc2)c2c1CCN(C)C2 [Example 150, 3-(4-fluorophenyl))-4,5,6,7-tetrahydro-5-methyl-1-n.pentyl-1H-pyrazolo/4,3-c/pyridine, methanesulfonate]
- Ki (α1 adrenoceptor): 18.3 nM

SMILES: CCCCCCn1nc(-c2ccc(F)cc2)c2c1CCN(C)C2 [Example 151, 3-(4-fluorophenyl)-4,5,6,7-tetrahydro-1-n.hexyl-5-methyl-1H-pyrazolo/4,3-c/pyridine, methanesulfonate]
- Ki (α1 adrenoceptor): 15.2 nM

SMILES: CC(C)N1CCc2c(c(-c3ccc(F)cc3)nn2Cc2ccccc2)C1 [Example 162, 3-(4-fluorophenyl)-5-(2-methylethyl)-1-phenylmethyl-4,5,6,7-tetrahydro-1H-pyrazolo/4,3-c/pyridine]
- Ki (α1 adrenoceptor): 97.6 nM

SMILES: Fc1ccc(-c2nn(Cc3ccccc3)c3c2CN(C2CCCC2)CC3)cc1 [Example 163, 5-cyclopentyl-3-(4-fluorophenyl)-1-phenylmethyl-4,5,6,7-tetrahydro-1H-pyrazolo/4,3-c/pyridine, hydrochloride]
- Ki (α1 adrenoceptor): 42.4 nM

Source: US4500525A, “Pharmacologically active pyrazolo/4,3-c/pyridines” (Gruppo Lepetit S.p.A., priority 1982, dated 1985)
